# Reference: PubChem BioAssay AID2060489 (Molecular Pharmacology Branch, DTP, NCI, 2025)
# pIC50: −log10 of the molar value.
# Test system: 922993-354-T-J3-PDC complex spheroids, viability
# Assay: Anticancer human tumor 922993-354-T-J3-PDC patient-derived endometrial carcinoma cell line growth inhibition [GQUAD]
# Conditions: for pIC50: curve of first compound; for viability, T/C: stronger effect = lower value
# Outline: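 Viability of tumor cells grown as complex spheroids with endothelial and stromal cells, exposed to drug combinations. Top concentration at or near clinical Cmax (else 10 microM), diluted in half-log increments.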
# [1] = second compound 0.0316 µM, first compound 0.0316 µM
# [2] = second compound 0.0316 µM, first compound 0.1 µM
# [3] = second compound 0.0316 µM, first compound 0.316 µM
# [4] = second compound 0.0316 µM, first compound 1 µM
# [5] = second compound 0.0316 µM, first compound 3.16 µM
# [6] = second compound 0.0316 µM, first compound 10 µM
# [7] = second compound 0.1 µM, first compound 0.0316 µM
# [8] = second compound 0.1 µM, first compound 0.1 µM
# [9] = second compound 0.1 µM, first compound 0.316 µM
# [10] = second compound 0.1 µM, first compound 1 µM
# [11] = second compound 0.1 µM, first compound 3.16 µM
# [12] = second compound 0.1 µM, first compound 10 µM
# [13] = second compound 0.316 µM, first compound 0.0316 µM
# [14] = second compound 0.316 µM, first compound 0.1 µM
# [15] = second compound 0.316 µM, first compound 0.316 µM
# [16] = second compound 0.316 µM, first compound 1 µM
# [17] = second compound 0.316 µM, first compound 3.16 µM
# [18] = second compound 0.316 µM, first compound 10 µM
# [19] = second compound 1 µM, first compound 0.0316 µM
# [20] = second compound 1 µM, first compound 0.1 µM
# [21] = second compound 1 µM, first compound 0.316 µM
# [22] = second compound 1 µM, first compound 1 µM
# [23] = second compound 1 µM, first compound 3.16 µM
# [24] = second compound 1 µM, first compound 10 µM
# [25] = second compound 3.16 µM, first compound 0.0316 µM
# [26] = second compound 3.16 µM, first compound 0.1 µM
# [27] = second compound 3.16 µM, first compound 0.316 µM
# [28] = second compound 3.16 µM, first compound 1 µM
# [29] = second compound 3.16 µM, first compound 3.16 µM
# [30] = second compound 3.16 µM, first compound 10 µM
# [31] = second compound 10 µM, first compound 0.0316 µM
# [32] = second compound 10 µM, first compound 0.1 µM
# [33] = second compound 10 µM, first compound 0.316 µM
# [34] = second compound 10 µM, first compound 1 µM
# [35] = second compound 10 µM, first compound 3.16 µM
# [36] = second compound 10 µM, first compound 10 µM
# 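Further: spheroids exposed to compounds for seven days.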
# 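Wherever viability, T/C is given: 100% = DMSO vehicle control viability.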
compound,measurement,setting,value
C=CCn1c(=O)c2cnc(Nc3ccc(N4CCN(C)CC4)cc3)nc2n1-c1cccc(C(C)(C)O)n1 + Cc1[nH]c2ccc(F)cc2c1-c1nc2c3cccnc3c3ncccc3c2[nH]1,pIC50,second compound 0.0316 µM,5.32
same,pIC50,second compound 0.1 µM,5.35
same,pIC50,second compound 0.316 µM,5.47
same,pIC50,second compound 1 µM,5.26
same,pIC50,second compound 3.16 µM,5.28
same,pIC50,second compound 10 µM,5.36
same,"viability, T/C",[1],119%
same,"viability, T/C",[2],107%
same,"viability, T/C",[3],119%
same,"viability, T/C",[4],101%
same,"viability, T/C",[5],70.6%
same,"viability, T/C",[6],16.6%
same,"viability, T/C",[7],127%
same,"viability, T/C",[8],81.2%
same,"viability, T/C",[9],108%
same,"viability, T/C",[10],91.7%
same,"viability, T/C",[11],64.6%
same,"viability, T/C",[12],16.4%
same,"viability, T/C",[13],97.5%
same,"viability, T/C",[14],122%
same,"viability, T/C",[15],128%
same,"viability, T/C",[16],116%
same,"viability, T/C",[17],52.1%
same,"viability, T/C",[18],14.7%
same,"viability, T/C",[19],91.9%
same,"viability, T/C",[20],102%
same,"viability, T/C",[21],101%
same,"viability, T/C",[22],91%
same,"viability, T/C",[23],80.4%
same,"viability, T/C",[24],17.9%
same,"viability, T/C",[25],114%
same,"viability, T/C",[26],81.5%
same,"viability, T/C",[27],124%
same,"viability, T/C",[28],107%
same,"viability, T/C",[29],75.4%
same,"viability, T/C",[30],17.4%
same,"viability, T/C",[31],105%
same,"viability, T/C",[32],97.9%
same,"viability, T/C",[33],104%
same,"viability, T/C",[34],98.2%
same,"viability, T/C",[35],63.6%
same,"viability, T/C",[36],15%
CC(C)(O)C1CCC(Nc2ccc3ncc(-c4cccc(C(F)(F)F)c4)n3n2)CC1 (centres undefined) + Cc1[nH]c2ccc(F)cc2c1-c1nc2c3cccnc3c3ncccc3c2[nH]1,pIC50,second compound 0.0316 µM,< 5.00
same,pIC50,second compound 0.1 µM,< 5.00
same,pIC50,second compound 0.316 µM,< 5.00
same,pIC50,second compound 1 µM,< 5.00
same,pIC50,second compound 3.16 µM,< 5.00
same,pIC50,second compound 10 µM,< 5.00
same,"viability, T/C",[1],96.5%
same,"viability, T/C",[2],93.5%
same,"viability, T/C",[3],76.6%
same,"viability, T/C",[4],84.5%
same,"viability, T/C",[5],72.9%
same,"viability, T/C",[6],66.5%
same,"viability, T/C",[7],95.6%
same,"viability, T/C",[8],77%
same,"viability, T/C",[9],99.1%
same,"viability, T/C",[10],77.3%
same,"viability, T/C",[11],85%
same,"viability, T/C",[12],77.2%
same,"viability, T/C",[13],99.7%
same,"viability, T/C",[14],87.4%
same,"viability, T/C",[15],91.2%
same,"viability, T/C",[16],108%
same,"viability, T/C",[17],81.6%
same,"viability, T/C",[18],62.6%
same,"viability, T/C",[19],86.5%
same,"viability, T/C",[20],104%
same,"viability, T/C",[21],92.6%
same,"viability, T/C",[22],87.5%
same,"viability, T/C",[23],77.7%
same,"viability, T/C",[24],66.4%
same,"viability, T/C",[25],95.2%
same,"viability, T/C",[26],80.2%
same,"viability, T/C",[27],111%
same,"viability, T/C",[28],79.8%
same,"viability, T/C",[29],94.7%
same,"viability, T/C",[30],67%
same,"viability, T/C",[31],105%
same,"viability, T/C",[32],105%
same,"viability, T/C",[33],84.6%
same,"viability, T/C",[34],99.8%
same,"viability, T/C",[35],72.8%
same,"viability, T/C",[36],61.6%
